Source: US11472808B2, “Substituted pyrrolo[1,2-c]pyrimidines as hepatitis B antiviral agents” (Enanta Pharmaceuticals, Inc., priority 2019, dated 2022)

Assays:
[1] = Compound toxicity, ATPLite total ATP levels; format: cell-based; details: human, HepG2 cells; concentration reducing total ATP levels by 50% relative to no drug controls; ATPLite three days after compound addition
Description: Compound toxicity is evaluated by seeding cells at 15,000 cells/well and treating with compound as described above.

[2] = tested on: HBV; assay: HepAD38 anti-HBV assay: reduction of viral product accumulation (virion DNA qPCR, HBsAg/HBeAg ELISA); format: cell-based; details: Hepatitis B virus, 120 h; HepAD38 cells; concentration reducing viral product accumulation by 50% relative to no drug controls; harvest five days after compound addition; read-out: HepAD38 EC50
In short: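 EC50 values reflect 50% reduction, relative to untreated controls, in virion DNA (qPCR) or HBsAg/HBeAg (ELISA) from lysates or supernatants. Washed HepAD38 cells without tetracycline were exposed to compound for 5 days. In the 8-day variant, medium and compound were renewed on days 2 and 5.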

SMILES	CC50 at 3 days [1] [nM]	EC50 [2] [nM]
CC(C)C[C@H](NS(=O)(=O)N[C@H]1CC2=C(c3ccn(C(F)F)n3)[C@H](c3ccc(F)cc3Cl)N=C(c3nccs3)N2C1)c1ccccn1 [Example 359]	> 25000	< 100
O=S(=O)(N[C@H]1CC2=C(c3ccn(C(F)F)n3)[C@H](c3ccc(F)cc3Cl)N=C(c3nccs3)N2C1)N1CCC(O)(CO)CC1 [Example 89]	> 25000	< 100
O=C1NCCN1C1CCN(S(=O)(=O)N[C@H]2CC3=C(c4ccn(C(F)F)n4)[C@H](c4ccc(F)cc4Cl)N=C(c4nccs4)N3C2)CC1 [Example 294]	> 25000	< 100
N#CCC1(O)CC2=C(c3ccn(C(F)F)n3)[C@H](c3ccc(F)cc3Cl)N=C(c3nccs3)N2C1 (stereo partly drawn) [Example 140]	> 25000	< 100
O=S(=O)(N[C@H]1CC2=C(c3ccn(C(F)F)n3)[C@H](c3ccc(F)cc3Cl)N=C(c3nccs3)N2C1)N1CCC(O)CC1 [Example 75]	> 25000	< 100
O=C(O)[C@H]1CC[C@H](c2ccc(S(=O)(=O)N[C@H]3CC4=C(c5ccn(C(F)F)n5)[C@H](c5ccc(F)cc5Cl)N=C(c5nccs5)N4C3)cc2)CC1 [Example 426]	> 25000	< 100
O=S(=O)(N[C@H]1CC2=C(c3ccn(C(F)F)n3)[C@H](c3ccc(F)cc3Cl)N=C(c3nccs3)N2C1)N1CCC(O)(C2CCCC2)CC1 [Example 267]	> 25000	< 100
O=C(N[C@H]1CC2=C(c3ccn(C(F)F)n3)[C@H](c3ccc(F)cc3Cl)N=C(c3nccs3)N2C1)c1nccs1 [Example 235]	> 25000	< 100
Nc1cccc(S(=O)(=O)N[C@H]2CC3=C(c4ccn(C(F)F)n4)[C@H](c4ccc(F)cc4Cl)N=C(c4nccs4)N3C2)n1 [Example 383]	> 25000	< 100
O=S(=O)(N[C@H]1CC2=C(c3ccn(C(F)F)n3)[C@H](c3ccc(F)cc3Cl)N=C(c3nccs3)N2C1)c1ccc(Br)cn1 [Example 368]	> 25000	< 100
O=S(=O)(N[C@H]1CC2=C(c3ccn(C(F)F)n3)[C@H](c3ccc(F)cc3Cl)N=C(c3nccs3)N2C1)[C@H]1CC[C@H](O)CC1 [Example 98]	> 25000	< 100
O=S(=O)(N[C@H]1CC2=C(c3ccn(C(F)F)n3)[C@H](c3ccc(F)cc3Cl)N=C(c3nccs3)N2C1)N1CCC(O)(c2ccccc2)CC1 [Example 257]	10000 to 25000	< 100
O=S(=O)(N[C@H]1CC2=C(c3ccn(C(F)F)n3)[C@H](c3ccc(F)cc3Cl)N=C(c3nccs3)N2C1)[C@H]1CC[C@](O)(CO)CC1 [Example 100]	> 25000	< 100
O=S(=O)(N[C@H]1CC2=C(c3ccn(C(F)F)n3)[C@H](c3ccc(F)cc3Cl)N=C(c3nccs3)N2C1)c1cccc(F)c1 [Example 386]	10000 to 25000	< 100
O=S(=O)(N[C@H]1CC2=C(c3ccn(C(F)F)n3)[C@H](c3ccc(F)cc3Cl)N=C(c3nccs3)N2C1)N1CCC(O)(c2ncco2)CC1 [Example 261]	> 25000	< 100
O=S(=O)(N[C@H]1CC2=C(c3ccn(C(F)F)n3)[C@H](c3ccc(F)cc3Cl)N=C(c3nccs3)N2C1)c1cccnc1 [Example 365]	> 25000	< 100
O=S(=O)(N[C@H]1CC2=C(c3ccn(C(F)F)n3)[C@H](c3ccc(F)cc3Cl)N=C(c3nccs3)N2C1)N1CC(O)(c2ccccn2)C1 [Example 269]	> 25000	< 100
CCOC(=O)CC1(S(=O)(=O)N[C@H]2CC3=C(c4ccn(C(F)F)n4)[C@H](c4ccc(F)cc4Cl)N=C(c4nccs4)N3C2)CC1 [Example 369]	> 25000	< 100
O=C1CCCN1C1CCN(S(=O)(=O)N[C@H]2CC3=C(c4ccn(C(F)F)n4)[C@H](c4ccc(F)cc4Cl)N=C(c4nccs4)N3C2)CC1 [Example 293]	> 25000	< 100
O=S(=O)(N[C@H]1CC2=C(c3ccn(C(F)F)n3)[C@H](c3ccc(F)cc3Cl)N=C(c3nccs3)N2C1)N1CCC(O)(c2ncccn2)CC1 [Example 303]	> 25000	< 100
O=S(=O)(N[C@H]1CC2=C(c3ccn(C(F)F)n3)[C@H](c3ccc(F)cc3Cl)N=C(c3nccs3)N2C1)N1CC(O)C1 [Example 95]	> 25000	< 100
O=S(=O)(N[C@H]1CC2=C(c3ccn(C(F)F)n3)[C@H](c3ccc(F)cc3Cl)N=C(c3nccs3)N2C1)c1cn[nH]c1 [Example 20]	> 25000	< 100
O=S(=O)(N[C@H]1CC2=C(c3ccn(C(F)F)n3)[C@H](c3ccc(F)cc3Cl)N=C(c3nccs3)N2C1)c1ccccc1 [Example 367]	> 25000	< 100

SMILES	CC50 at 3 days [1] [nM]	EC50 [2] [nM]
CC1(O)CCN(S(=O)(=O)N[C@H]2CC3=C(c4ccn(C(F)F)n4)[C@H](c4ccc(F)cc4Cl)N=C(c4nccs4)N3C2)CC1 [Example 256]	> 25000	< 100
O=S(=O)(N[C@H]1CC2=C(c3ccn(C(F)F)n3)[C@H](c3ccc(F)cc3Cl)N=C(c3nccs3)N2C1)N1C[C@H](F)[C@@H](F)C1 [Example 275]	10000 to 25000	< 100
O=S(=O)(N[C@H]1CC2=C(c3ccn(C(F)F)n3)[C@H](c3ccc(F)cc3Cl)N=C(c3nccs3)N2C1)N1CC[C@@H](O)C1 [Example 92]	> 25000	< 100
O=S(=O)(N[C@H]1CC2=C(c3ccn(C(F)F)n3)[C@H](c3ccc(F)cc3Cl)N=C(c3nccs3)N2C1)N1CCC(F)(F)C1 [Example 276]	< 10000	< 100
CC(C)(O)[C@@H]1CCCN1S(=O)(=O)N[C@H]1CC2=C(c3ccn(C(F)F)n3)[C@H](c3ccc(F)cc3Cl)N=C(c3nccs3)N2C1 [Example 289]	> 25000	< 100
O=S(=O)(N[C@H]1CC2=C(c3ccn(C(F)F)n3)[C@H](c3ccc(F)cc3Cl)N=C(c3nccs3)N2C1)N1CCC(O)(C(O)CO)CC1 (stereo partly drawn) [Example 96]	> 25000	< 100
C[C@]1(NS(=O)(=O)C2CCC(O)(c3ccccn3)CC2)CC2=C(c3ccn(C(F)F)n3)[C@H](c3ccc(F)cc3Cl)N=C(c3nccs3)N2C1 (stereo partly drawn) [Example 363]	10000 to 25000	< 100
O=S(=O)(NC1CCCCC1)N[C@H]1CC2=C(c3ccn(C(F)F)n3)[C@H](c3ccc(F)cc3Cl)N=C(c3nccs3)N2C1 [Example 417]		< 100
O=S(=O)(N[C@H]1CC2=C(c3ccn(C(F)F)n3)[C@H](c3ccc(F)cc3Cl)N=C(c3nccs3)N2C1)N1CCC(F)(F)CC1 [Example 277]		< 100
CC1(C)CCCCN1S(=O)(=O)N[C@H]1CC2=C(c3ccn(C(F)F)n3)[C@H](c3ccc(F)cc3Cl)N=C(c3nccs3)N2C1 [Example 295]		< 100
COC[C@]1(O)CC2=C(c3ccn(C(F)F)n3)[C@H](c3ccc(F)cc3Cl)N=C(c3nccs3)N2C1 [Example 107]		> 400
O=C(N[C@H]1CC2=C(c3ccn(C(F)F)n3)[C@H](c3ccc(F)cc3Cl)N=C(c3nccs3)N2C1)N1CCC(CO)CC1 [Example 216]		100 to 400
C=CS(=O)(=O)N([C@H]1CC2=C(c3ccn(C(F)F)n3)[C@H](c3ccc(F)cc3Cl)N=C(c3nccs3)N2C1)S(=O)(=O)C=C [Example 51]		> 400
O=C(N[C@H]1CC2=C(c3ccn(C(F)F)n3)[C@H](c3ccc(F)cc3Cl)N=C(c3nccs3)N2C1)c1ncccn1 [Example 232]		< 100
C=CS(=O)(=O)N[C@H]1CC2=C(c3ccn(C(F)F)n3)[C@H](c3ccc(F)cc3Cl)N=C(c3nccs3)N2C1 [Example 50]		100 to 400
CNC(=O)N[C@H]1CC2=C(c3ccn(C(F)F)n3)[C@H](c3ccc(F)cc3Cl)N=C(c3nccs3)N2C1 [Example 199]		100 to 400
O=C(N[C@H]1CC2=C(c3ccn(C(F)F)n3)[C@H](c3ccc(F)cc3Cl)N=C(c3nccs3)N2C1)c1cccc(C2CC2)n1 [Example 248]		> 400
O=Cc1cccc(S(=O)(=O)N[C@H]2CC3=C(c4ccn(C(F)F)n4)[C@H](c4ccc(F)cc4Cl)N=C(c4nccs4)N3C2)c1 [Example 333]		< 100
O=C(N[C@H]1CC2=C(c3ccn(C(F)F)n3)[C@H](c3ccc(F)cc3Cl)N=C(c3nccs3)N2C1)N1CCCC1 [Example 209]		< 100
O=C(O)c1ccc(NC(=O)N2CCN([C@H]3CC4=C(c5ccn(C(F)F)n5)[C@H](c5ccc(F)cc5Cl)N=C(c5nccs5)N4C3)CC2)cc1 [Example 47]		> 400
Cc1ccc(S(=O)(=O)N2CCN([C@H]3CC4=C(c5ccn(C(F)F)n5)[C@H](c5ccc(F)cc5Cl)N=C(c5nccs5)N4C3)CC2)cc1 [Example 44]		> 400
CS(=O)(=O)[C@H]1CC2=C(c3ccn(C(F)F)n3)[C@H](c3ccc(F)cc3Cl)N=C(c3nccs3)N2C1 [Example 134]		100 to 400
